In test [1] the target is T1, RORγ-LBD (Homo sapiens, UniProt P51449).
T1 construct: made in house; host or cells: SF9 cells (baculovirus); used as diluted lysate
T1 sequence (P51449 269-508 limits assumed): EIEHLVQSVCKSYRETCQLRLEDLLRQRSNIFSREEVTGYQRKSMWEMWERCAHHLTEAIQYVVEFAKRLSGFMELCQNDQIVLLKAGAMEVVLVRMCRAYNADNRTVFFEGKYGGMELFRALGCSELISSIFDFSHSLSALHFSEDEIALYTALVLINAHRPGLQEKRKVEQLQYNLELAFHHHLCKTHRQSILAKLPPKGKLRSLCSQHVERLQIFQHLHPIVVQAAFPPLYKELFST
The test can be described thus: RORγ-Ligand Binding Domain (LBD) TR-FRET Assay.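 For TR-FRET Assay Max Response: 665/615 nm signal ratio set to 100 without ursolic acid or test compound.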 Type of test: biochemical. The note with it: for TR-FRET Assay Max Response: maximum response. The gist of the method:
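Lysate from SF9 cells expressing His-RORγ-LBD is diluted to about 3 nM final in 50 mM Tris pH 7.0 assay buffer. A biotin-tagged SRC1 LXXLL peptide goes in at 200 nM final, plus ursolic acid at 2 μM final. Test compounds carry 1% DMSO final; signal read by TR-FRET.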
(TR-FRET usually uses a lanthanide donor and a delayed reading to cut background.)

The target of test [2] is T2, Gal4-RORγ-LBD (Homo sapiens, UniProt P51449).
T2 construct: expressed in transfected cells
T2 sequence (P51449 269-508 limits assumed): T1 sequence (P51449 269-508 limits assumed)
The test can be described thus: Gal4-RORγ Luciferase Reporter Assay in HEK-293T Cells. Format: cell-based. The note with it: HEK-293 cells; for Gal4-RORγ Assay Max Response: maximum response. The gist of the method:
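Max Response was taken as the upper plateau of a 4-parameter logistic fit of luciferase signal, normalized to 100 for wells without ursolic acid or compound. Transiently Gal4-RORγ-LBD/Gal4-luc transfected HEK-293 cells carrying […] ursolic acid were incubated with test compounds (0.2% DMSO) overnight at 37 °C and read with One-Glo.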

Setting [3] is: luciferase reporter, with ursolic acid.
The mark [4] stands for this setting: luciferase reporter, in presence of ursolic acid.

By EC50 is commonly meant the concentration that produces a half-maximal response. For the compound `CCOc1ncc(C(F)(F)F)cc1S(=O)(=O)N1C[C@H](CCC(=O)OC)Oc2ccc(/C=C/c3c(Cl)cccc3C(F)(F)F)cc21` [Example 89DN, methyl (S,E)-3-(6-(2-chloro-6-(trifluoromethyl)styryl)-4-((2-ethoxy-5-(trifluoromethyl)-pyridin-3-yl)sulfonyl)-3,4-dihydro-2H-benzo[b][1,4]-oxazin-2-yl)propanoate], the EC50 was < 500 nM in test [1] (RORγ-LBD TR-FRET) and 500 to 5000 nM in test [2] (setting [3]).

Regarding `C/C(=C\c1ccc2c(c1)C(S(=O)(=O)c1cccc(C(F)(F)F)c1)CC(CNS(C)(=O)=O)O2)c1c(F)cccc1Cl` (centres unmarked) [Example 184, (E)-N-((6-(2-(2-Chloro-6-fluorophenyl)prop-1-en-1-yl)-4-((3-(trifluoromethyl)phenyl)sulfonyl)chroman-2-yl)methyl)methanesulfonamide], in test [1] (RORγ-LBD TR-FRET assay), the EC50 was < 500 nM and the “TR-FRET Assay Max Response” value is “*** (a value in the range of greater than 150 to 200)”. Besides, in test [2] (setting [4]), the EC50 is < 500 nM and the “Gal4-RORγ Assay Max Response” value is on record as “** (a value in the range of greater than 90 to 150)”.

Consider `C/C(=C\c1ccc2c(c1)N(S(=O)(=O)c1cccc(C(C)C)c1)C[C@H](CCC(=O)O)O2)c1c(F)cccc1Cl` [Example 86Q, (S,E)-3-(6-(2-(2-chloro-6-fluorophenyl)prop-1-en-1-yl)-4-((3-isopropylphenyl)sulfonyl)-3,4-dihydro-2H-benzo[b][1,4]oxazin-2-yl)propanoic acid], for which the EC50 in test [1] (RORγ-LBD TR-FRET) and in test [2] (setting [3]) was < 500 nM in each case.

For the compound `COc1cc(S(=O)(=O)N2C[C@H](CNC(C)=O)Oc3ccc(/C=C(\C)c4c(F)cccc4Cl)cc32)ccc1F` [Example 109B, (S,E)-N-((6-(2-(2-chloro-6-fluorophenyl)prop-1-en-1-yl)-4-((4-fluoro-3-methoxyphenyl)-sulfonyl)-3,4-dihydro-2H-benzo[b][1,4]oxazin-2-yl)methyl)acetamide], in test [1] (RORγ-LBD TR-FRET assay), the EC50 was < 500 nM and the “TR-FRET Assay Max Response” value was “** (a value in the range of greater than 90 to 150)”. Moreover, in test [2] (setting [4]), the EC50 is < 500 nM and the “Gal4-RORγ Assay Max Response” value is recorded as “* (a value in the range of 30 to 90)”.

In the case of `O=C(O)CC[C@H]1CN(S(=O)(=O)c2cccc(C(F)(F)F)c2)c2cc(C=C3CCC(F)(F)CC3)ccc2O1` [Example 95L, (S)-3-(6-((4,4-difluorocyclo-hexylidene)methyl)-4-((3-(trifluoromethyl)phenyl)sulfonyl)-3,4-dihydro-2H-benzo[b][1,4]oxazin-2-yl)propanoic acid], the EC50 in test [1] (RORγ-LBD TR-FRET) and in test [2] (setting [3]) was < 500 nM each time.

For `O=C(O)CC[C@H]1CN(S(=O)(=O)c2cccc(C(F)(F)F)c2)c2cc(/C=C/c3ccc(Cl)cc3F)ccc2O1` [Example 89BH, (S,E)-3-(6-(4-chloro-2-fluorostyryl)-4-((3-(trifluoromethyl)phenyl)sulfonyl)-3,4-dihydro-2H-benzo[b][1,4]oxazin-2-yl)propanoic acid], the EC50 in test [1] (RORγ-LBD TR-FRET) was < 500 nM; in test [2] (setting [3]) it was > 10000 nM.

Take `COC(=O)CC[C@H]1CN(S(=O)(=O)c2cccc(OC)c2)c2cc(/C=C(\C)c3c(F)cccc3Cl)ccc2O1` [Example 86N, (S,E)-methyl 3-(6-(2-(2-chloro-6-fluorophenyl)prop-1-en-1-yl)-4-((3-methoxyphenyl)sulfonyl)-3,4-dihydro-2H-benzo[b][1,4]oxazin-2-yl)propanoate]: the EC50 in test [1] (RORγ-LBD TR-FRET) and in test [2] (setting [3]) was < 500 nM each time.

Turning to `O=C(O)CCC[C@H]1CN(S(=O)(=O)c2cccc(C(F)(F)F)c2)c2cc(/C=C/c3c(F)cccc3Cl)ccc2O1` [Example 195D, (S,E)-4-(6-(2-chloro-6-fluorostyryl)-4-((3-(trifluoro-methyl)phenyl)sulfonyl)-3,4-dihydro-2H-benzo[b][1,4]oxazin-2-yl)butanoic acid], the EC50 is < 500 nM in test [1] (with 2 μM ursolic acid (RORγ antagonist), highest test concentration 10 μM) and < 500 nM in test [2] (ursolic acid present, luciferase readout).

These data come from patent publication US9896441B2 (Lycera Corporation, priority 2014, dated 2018).
